Results published in patent US20190071416A1, “COMPOUNDS FOR TREATMENT OF CANCER AND EPIGENETICS” (Agency For Science, Technology and Research, priority 2015, published 2019).

These compounds were tested against T1, SMYD3 (Homo sapiens, UniProt Q9H7B4) (assay: SMYD3 biochemical assay (MTase-Glo, MAP3K2 peptide substrate)). Conditions: Table 3; MTase assay, MAP3K2 peptide substrate; read-out: IC50.
T1 sequence (Q9H7B4 1-428): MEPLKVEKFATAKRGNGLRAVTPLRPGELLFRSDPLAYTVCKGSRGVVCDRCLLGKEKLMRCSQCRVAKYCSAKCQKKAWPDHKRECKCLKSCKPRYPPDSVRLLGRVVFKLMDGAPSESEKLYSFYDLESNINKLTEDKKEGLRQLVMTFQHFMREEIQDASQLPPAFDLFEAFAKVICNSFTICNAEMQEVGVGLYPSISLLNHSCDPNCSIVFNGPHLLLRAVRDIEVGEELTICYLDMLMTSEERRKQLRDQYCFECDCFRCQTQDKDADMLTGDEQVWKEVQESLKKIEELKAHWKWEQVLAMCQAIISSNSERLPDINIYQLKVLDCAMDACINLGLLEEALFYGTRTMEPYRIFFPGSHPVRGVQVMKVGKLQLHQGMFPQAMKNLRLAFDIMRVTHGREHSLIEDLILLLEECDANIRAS
Procedure, shortened: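 Luminescent readout of SAH production (coupled SAH→ATP conversion, MTase-Glo) after SMYD3 reacted 30 min at room temperature with 1.0 µM SAM and 10 µM MAP3K2 peptide, both final. Non-linear regression gave IC50 values.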
Work on CCCOC(=O)N1CCN(C(=O)c2ccc3c(Cl)cc(C4CC4)nc3c2)CC1 [B125, Propyl 4-(4-chloro-2-cyclopropylquinoline-7-carbonyl)piperazine-1-carboxylate] yielded an IC50 of 560 nM.
For CCCOC(=O)N1CCN(C(=O)c2ccc3c(Cl)cc(-c4ccc(CN(C)C)s4)nc3c2)CC1 [B126, Propyl 4-(4-chloro-2-(5-((dimethylamino)methyl)thiophen-2-yl)quinoline-7-carbonyl)piperazine-1-carboxylate], the IC50 was 89 nM.
Work on CCCOC(=O)N1CCN(C(=O)c2ccc3c(Cl)cc(-c4ccc5nn(C)cc5c4)nc3c2)CC1 [B127, Propyl 4-(4-chloro-2-(2-methyl-2H-indazol-5-yl)quinoline-7-carbonyl)piperazine-1-carboxylate] yielded an IC50 of 21 nM.
CCCOC(=O)N1CCN(C(=O)c2ccc3c(Cl)cc(-c4ccc5[nH]ncc5c4)nc3c2)CC1 [B128, Propyl 4-(4-chloro-2-(1H-indazol-5-yl)quinoline-7-carbonyl)piperazine-1-carboxylate] was tested, and the IC50 was 53 nM.
Work on CCCOC(=O)N1CCN(C(=O)c2ccc3c(Cl)cc(-c4ccc5cn[nH]c5c4)nc3c2)CC1 [B129, Propyl 4-(4-chloro-2-(1H-indazol-6-yl)quinoline-7-carbonyl)piperazine-1-carboxylate] yielded an IC50 of 87 nM.
Compound CCCOC(=O)N1CCN(C(=O)c2ccc3c(Cl)cc(-c4ccn(C)c4)nc3c2)CC1 [B130, Propyl 4-(4-chloro-2-(1-methyl-1H-pyrrol-3-yl)quinoline-7-carbonyl)piperazine-1-carboxylate] has an IC50 of 23 nM.
Compound CCCOC(=O)N1CCN(C(=O)c2ccc3c(Cl)cc(-c4ccnc(OC)c4)nc3c2)C[C@H]1C [B131, Propyl (R)-4-(4-chloro-2-(2-methoxypyridin-4-yl)quinoline-7-carbonyl)-2-methylpiperazine-1-carboxylate] has an IC50 of 360 nM.
Compound CCCOC(=O)N1CCN(C(=O)c2ccc3c(Cl)cc(-c4cnc5[nH]ccc5c4)nc3c2)C[C@H]1C [B132, Propyl (R)-4-(4-chloro-2-(1H-pyrrolo[2,3-b]pyridin-5-yl)quinoline-7-carbonyl)-2-methylpiperazine-1-carboxylate] has an IC50 of 170 nM.
In the case of CCCOC(=O)N1CCN(C(=O)c2ccc3c(Cl)cc(C4(C)CC4)nc3c2)CC1 [B133, Propyl 4-(4-chloro-2-(1-methylcyclopropyl)quinoline-7-carbonyl)piperazine-1-carboxylate], the IC50 is reported as 1400 nM.
For CCCOC(=O)N1CCN(C(=O)c2ccc3c(Cl)cc(-c4ccc(-n5cccn5)cc4)nc3c2)CC1 [B134, Propyl 4-(2-(4-(1H-pyrazol-1-yl)phenyl)-4-chloroquinoline-7-carbonyl)piperazine-1-carboxylate], the IC50 was 600 nM.
Compound CCCOC(=O)N1CCN(C(=O)c2ccc3c(Cl)cc(-c4ccc(-c5ccn[nH]5)cc4)nc3c2)CC1 [B135, Propyl 4-(2-(4-(1H-pyrazol-5-yl)phenyl)-4-chloroquinoline-7-carbonyl)piperazine-1-carboxylate] has an IC50 of 400 nM.
Work on CCCOC(=O)N1CCN(C(=O)c2ccc3c(Cl)cc(-c4ccc(-c5cn[nH]c5)cc4)nc3c2)CC1 [B136, Propyl 4-(2-(4-(1H-pyrazol-4-yl)phenyl)-4-chloroquinoline-7-carbonyl)piperazine-1-carboxylate] yielded an IC50 of 38 nM.
CCCOC(=O)N1CCN(C(=O)c2ccc3c(Cl)cc(-c4ccc(C(=O)O)c(C)c4)nc3c2)CC1 [B137, 4-(4-Chloro-7-(4-(propoxycarbonyl)piperazine-1-carbonyl)quinolin-2-yl)-2-methylbenzoic acid] was tested, and the IC50 was 3600 nM.
With CCCOC(=O)N1CCN(C(=O)c2ccc3c(Cl)cc(-c4cc[nH]n4)nc3c2)CC1 [B138, Propyl 4-(4-chloro-2-(1H-pyrazol-5-yl)quinoline-7-carbonyl)piperazine-1-carboxylate] the IC50 was 830 nM.
Work on CCCOC(=O)N1CCN(C(=O)c2ccc3c(Cl)cc(-c4ccc5[nH]cnc5c4)nc3c2)CC1 [B139, Propyl 4-(2-(1H-benzo[d]imidazol-5-yl)-4-chloroquinoline-7-carbonyl)piperazine-1-carboxylate] yielded an IC50 of 34 nM.
Compound CCCOC(=O)N1CCN(C(=O)c2ccc3c(Cl)cc(-c4ccc5c(ccn5C)c4)nc3c2)CC1 [B140, Propyl 4-(4-chloro-2-(1-methyl-1H-indo1-5-yl)quinoline-7-carbonyl)piperazine-1-carboxylate] has an IC50 of 350 nM.
Work on CCCOC(=O)N1CCN(C(=O)c2ccc3c(Cl)cc(-c4cccc5[nH]ncc45)nc3c2)CC1 [B141, Propyl 4-(4-chloro-2-(1H-indazol-4-yl)quinoline-7-carbonyl)piperazine-1-carboxylate] yielded an IC50 of 630 nM.
Work on CCCOC(=O)N1CCN(C(=O)c2ccc3c(Cl)cc(-c4cccc(CO)c4)nc3c2)C[C@H]1C [B142, Propyl (R)-4-(4-chloro-2-(3-(hydroxymethyl)phenyl)quinoline-7-carbonyl)-2-methylpiperazine-1-carboxylate] yielded an IC50 of 55 nM.
Work on CCCOC(=O)N1CCN(C(=O)c2ccc3c(Cl)cc(-c4cccc(O)c4)nc3c2)CC1 [B143, Propyl 4-(4-chloro-2-(3-hydroxyphenyl)quinoline-7-carbonyl)piperazine-1-carboxylate] yielded an IC50 of 16 nM.
CCCOC(=O)N1CCN(C(=O)c2ccc3c(Cl)cc(-c4ccc5c(cnn5C)c4)nc3c2)C[C@@H]1C [B144, Propyl (S)-4-(4-chloro-2-(1-methyl-1H-indazol-5-yl)quinoline-7-carbonyl)-2-methylpiperazine-1-carboxylate] showed an IC50 of 18 nM.
Compound CCCOC(=O)N1CCN(C(=O)c2ccc3c(Cl)cc(-c4cccc(CN)c4)nc3c2)C[C@@H]1C [B145, Propyl (S)-4-(2-(3-(aminomethyl)phenyl)-4-chloroquinoline-7-carbonyl)-2-methylpiperazine-1-carboxylate] has an IC50 of 47 nM.
CCCOC(=O)N1CCN(C(=O)c2ccc3c(Cl)cc(-c4ccc(C(N)=O)cc4)nc3c2)C[C@@H]1C [B146, Propyl (S)-4-(2-(4-carbamoylphenyl)-4-chloroquinoline-7-carbonyl)-2-methylpiperazine-1-carboxylate] was tested, and the IC50 was 42 nM.
Compound CCCOC(=O)N1CCN(C(=O)c2ccc3c(Cl)cc(-c4cn[nH]c4)nc3c2)CC1 [B147, Propyl 4-(4-chloro-2-(1H-pyrazol-4-yl)quinoline-7-carbonyl)piperazine-1-carboxylate] has an IC50 of 150 nM.
Compound CCCOC(=O)N1CCN(C(=O)c2ccc3c(Cl)cc(-c4ccsc4)nc3c2)CC1 [B148, Propyl 4-(4-chloro-2-(thiophen-3-yl)quinoline-7-carbonyl)piperazine-1-carboxylate] has an IC50 of 99 nM.
With CCCOC(=O)N1CCN(C(=O)c2ccc3c(Cl)cc(-c4ccc(NC(C)=O)nc4)nc3c2)CC1 [B149, Propyl 4-(2-(6-acetamidopyridin-3-yl)-4-chloroquinoline-7-carbonyl)piperazine-1-carboxylate] the IC50 was 110 nM.
CCCOC(=O)N1CCN(C(=O)c2ccc3c(Cl)cc(-c4ccc(F)c(CO)c4)nc3c2)CC1 [B150] gave an IC50 of 280 nM.
With CCCOC(=O)N1CCN(C(=O)c2ccc3c(Cl)cc(-c4ccc(F)c(C(N)=O)c4)nc3c2)CC1 [B151, Propyl 4-(2-(3-carbamoyl-4-fluorophenyl)-4-chloroquinoline-7-carbonyl)piperazine-1-carboxylate] the IC50 was 620 nM.
With CCCOC(=O)N1CCN(C(=O)c2ccc3c(Cl)cc(-c4ccc(F)c(C(=O)NC)c4)nc3c2)CC1 [B152, Propyl 4-(4-chloro-2-(4-fluoro-3-(methylcarbamoyl)phenyl)quinoline-7-carbonyl)piperazine-1-carboxylate] the IC50 was 410 nM.
Compound CCCOC(=O)N1CCN(C(=O)c2ccc3c(Cl)cc(-c4cscn4)nc3c2)CC1 [B153, Propyl 4-(4-chloro-2-(thiazol-4-yl)quinoline-7-carbonyl)piperazine-1-carboxylate] has an IC50 of 1130 nM.
For CCCOC(=O)N1CCN(C(=O)c2ccc3c(Cl)cc(-c4ccc(F)c(C(=O)N(C)C)c4)nc3c2)CC1 [B154, Propyl 4-(4-chloro-2-(3-(dimethylcarbamoyl)-4-fluorophenyl)quinoline-7-carbonyl)piperazine-1-carboxylate], the IC50 was 2290 nM.
For CCCOC(=O)N1CCN(C(=O)c2ccc3c(Cl)cc(-c4ccc5c(cnn5C)c4)nc3c2)CC1C (centres unmarked) [B155, Propyl 4-(4-chloro-2-(1-methyl-1H-indazol-5-yl)quinoline-7-carbonyl)-2-methylpiperazine-1-carboxylate], the IC50 was 180 nM.
For CCCOC(=O)N1CCN(C(=O)c2ccc3c(Cl)cc(-c4ccc(F)c(O)c4)nc3c2)CC1 [B157, Propyl 4-(4-chloro-2-(4-fluoro-3-hydroxyphenyl)quinoline-7-carbonyl)piperazine-1-carboxylate], the IC50 was 360 nM.
CCCOC(=O)N1CCN(C(=O)c2ccc3c(Cl)cc(-c4cccc(C(C)O)c4)nc3c2)CC1 (centres unmarked) [B158, Propyl 4-(4-chloro-2-(3-(1-hydroxyethyl)phenyl)quinoline-7-carbonyl)piperazine-1-carboxylate] gave an IC50 of 84 nM.
For CCCOC(=O)N1CCN(C(=O)c2ccc3c(Cl)cc(-c4ccc(C)c(CO)c4)nc3c2)CC1 [B159, Propyl 4-(4-chloro-2-(3-(hydroxymethyl)-4-methylphenyl)quinoline-7-carbonyl)piperazine-1-carboxylate], the IC50 was 120 nM.
CCCOC(=O)N1CCN(C(=O)c2ccc3c(Cl)cc(-c4ccc(O)cc4)nc3c2)[C@@H](C)C1 [B160, Propyl (S)-4-(4-chloro-2-(4-hydroxyphenyl)quinoline-7-carbonyl)-3-methylpiperazine-1-carboxylate] showed an IC50 of 150 nM.
